From ChEMBL document CHEMBL3739282, “An efficient green synthesis of 2-arylbenzothiazole analogues as potent antibacterial and anticancer agents” (Bioorg Med Chem Lett, 2016)
≈ marks a conversion by molar mass, not a printed value.

Key:
[1] = tested on: Salmonella; assay: Antibacterial activity against Salmonella assessed as growth inhibition incubated for 24 hrs at 37 degC by agar well diffusion method; type: functional
[2] = tested on: HeLa; assay: Cytotoxicity against human HeLa cells assessed as cell death after 24 hrs by MTT assay; type: functional, cell-based
[3] = tested on: Staphylococcus aureus; assay: Antibacterial activity against Staphylococcus aureus assessed as growth inhibition incubated for 24 hrs at 37 degC by agar well diffusion method; type: functional
[4] = tested on: MCF7; assay: Cytotoxicity against human MCF7 cells assessed as cell death after 24 hrs by MTT assay; type: functional, cell-based; conditions: MCF7, 24 h
[5] = tested on: Escherichia coli; assay: Antibacterial activity against Escherichia coli assessed as growth inhibition incubated for 24 hrs at 37 degC by agar well diffusion method; type: functional
[6] = tested on: Bacillus subtilis; assay: Antibacterial activity against Bacillus subtilis assessed as growth inhibition incubated for 24 hrs at 37 degC by agar well diffusion method; type: functional
[7] = Stability of the compound in GSH at 10^-5 M after 48 hrs by UV-vis spectroscopic analysis; type: physicochemical; conditions: 10 µM

Compound | MIC [1] [µg/mL] | IC50 [2] [µM] | MIC [3] [µg/mL] | IC50 [4] [µM] | MIC [5] [µg/mL] | MIC [6] [µg/mL] | Stability [7]
c1coc(-c2nc3ccccc3s2)c1 | 50 (≈ 248 µM) | 22.6 | 50 (≈ 248 µM) | 17.6 | 50 (≈ 248 µM) | 50 (≈ 248 µM) | 
Brc1cccc(-c2nc3ccccc3s2)c1 | 12.5 (≈ 43.1 µM) | 17.4 | 12.5 (≈ 43.1 µM) | 10.5 | 12.5 (≈ 43.1 µM) | 12.5 (≈ 43.1 µM) | 
c1ccc(-c2nc3ccccc3s2)cc1 [2-PHENYLBENZO[D]THIAZOLE] | 25 (≈ 118 µM) | 22.1 | 50 (≈ 237 µM) | 18.5 | 50 (≈ 237 µM) | 25 (≈ 118 µM) | Stable
Fc1ccc(-c2nc3ccccc3s2)cc1 | 12.5 (≈ 54.5 µM) | 16.6 | 6.25 (≈ 27.3 µM) | 9.85 | 6.25 (≈ 27.3 µM) | 12.5 (≈ 54.5 µM) | 
Cc1ccccc1-c1nc2ccccc2s1 | 100 (≈ 444 µM) | 28.2 | 100 (≈ 444 µM) | 20.4 | 100 (≈ 444 µM) | 100 (≈ 444 µM) | 
Oc1ccccc1-c1nc2ccccc2s1 | 100 (≈ 440 µM) | 30.6 | 100 (≈ 440 µM) | 26.8 | 100 (≈ 440 µM) | 100 (≈ 440 µM) | 
NC[C@H]1O[C@H](O[C@H]2[C@H](O)[C@@H](O[C@H]3O[C@H](CO)[C@@H](O)[C@H](N)[C@H]3O)[C@H](N)C[C@@H]2N)[C@H](N)C[C@@H]1O [TOBRAMYCIN] | 3 (≈ 6.42 µM) |  | 1.5 (≈ 3.21 µM) |  | 3 (≈ 6.42 µM) | 3 (≈ 6.42 µM) | 
Clc1ccccc1-c1nc2ccccc2s1 | 12.5 (≈ 50.9 µM) | 18.2 | 12.5 (≈ 50.9 µM) | 10.7 | 12.5 (≈ 50.9 µM) | 12.5 (≈ 50.9 µM) | 
COc1cccc(-c2nc3ccccc3s2)c1O | > 200 | 32.6 | > 200 | 28.6 | > 200 | > 200 | 
c1ccc(-c2nc3ccccc3s2)nc1 | 12.5 (≈ 58.9 µM) | 27.5 | 6.25 (≈ 29.4 µM) | 20.4 | 12.5 (≈ 58.9 µM) | 12.5 (≈ 58.9 µM) | Stable
c1csc(-c2nc3ccccc3s2)c1 | 25 (≈ 115 µM) | 28.5 | 12.5 (≈ 57.5 µM) | 22.6 | 12.5 (≈ 57.5 µM) | 25 (≈ 115 µM) | 
c1ccc2cc(-c3nc4ccccc4s3)ccc2c1 | > 200 | 48.2 | > 200 | 42.3 | > 200 | > 200 | 
c1ccc2[nH]c(-c3nc4ccccc4s3)cc2c1 | 3.12 (≈ 12.5 µM) | 15.2 | 3.12 (≈ 12.5 µM) | 9.26 | 3.12 (≈ 12.5 µM) | 3.12 (≈ 12.5 µM) | 
O=C(O)c1cn(C2CC2)c2cc(N3CCNCC3)c(F)cc2c1=O [CIPROFLOXACIN] | 10 (≈ 30.2 µM) |  |  |  |  | 25 (≈ 75.4 µM) | 
GENTAMICIN | 2 |  | 1 |  | 2 | 2 | 
